pKd: −log10 of the molar value. Bridges are numbered along the chain shown (N, C = ends). Roman numbers before positions name the chains, in order. [ ]: non-standard residue; d: D form. Dap = NC[C@H](N)C(=O)O
Legend:
E. coli (strain JM 109) [1] = test: Neutralization of endotoxin presented by intact E. coli, endotoxin chromogenic assay; assay type: biochemical, Escherichia coli; conditions: TR3 CONST 200 µg/mL; for % neutralization / Endotoxin Equivalents: 10 min, 37°C
Experimental: LPS is presented on the surface of gram-negative bacteria, such as Escherichia coli (E. coli). It was thus of interest to determine whether TR3 CONST would bind LPS present on whole bacterial cells. The assay method used was the endotoxin chromogenic assay as described above.
Thus, increasing amounts of E. coli (strain JM 109) were incubated (10 min; 37°C) in the presence or absence of 200 µg/mL TR3 CONST in 10 mM phosphate-150 mM NaCI-3 mM KCI buffer, pH 7.4. An aliquot of the incubation mixture was then assayed for residual endotoxin activity as previously described.
Equivalent endotoxin concentrations are deduced by reference to the endotoxin calibration curve.

[2] = Neutralization of endotoxin added to plasma or buffer, kinetic chromogenic Limulus Amebocyte Lysate endotoxin assay; assay type: biochemical
Description: The presence of endotoxin may routinely be measured using, for example, a kinetic chromogenic method. The assay involves a complete set of enzyme reactions which are described in detail in the following publications, each of which is hereby incorporated by reference. Endosafe Limulus Amebocyte Lysate Endochrome-K™ package insert. (Endosafe, Charleston, SC) Pearson III, F., Pyrogens/Endotoxins, LAL Testing and Depyrogenation, 1985. Watson, S., Levin, J., and Novitsky, T., Progress in Clinical and Biological Research, Endotoxins and their detection with the Limulus Amebocyte Lysate Test, 93.
In the course of the endotoxin assay, a calibration curve is prepared which is a plot of logarithm of the time of the kinetic endpoint of a chromogenic reaction versus the logarithm of known concentrations of endotoxin.
Thus, if endotoxin is added to aqueous buffer solutions or to plasma the amount of endotoxin present can be assayed by reference to the calibration curve. Similarly, if plasma, plasma fractions, patient samples or any test solution contains an endogenous level of endotoxin, the level can also be determined by reference to the calibration curve.
Endotoxin was purposely added to plasma to a final concentration of 10 ng/mL and increasing concentrations of the compounds Arg Helix #2 (a monomeric cationic helix peptide), Bis Arg Helix #2 (which contains 2 copies of Arg Helix #2), Tris Arg Helix #3 (which contains 3 copies of Arg Helix #3), Tetra Arg Helix #3 (4 copies of Arg Helix #3) or Tris Arg Helix #3 (constrained) (3 copies of Arg Helix #3 constrained by design to present a "binding groove" within the molecule) were added to these same samples (Table 1).

[3] = Titration circular dichroism spectroscopy of endotoxin binding; conditions: CD titration
Experimental: Circular dichroism (CD) spectroscopy can be used to determine the fractional percent of secondary structural elements present in a peptide preparation. Titration CD spectroscopy can be used to assess the effect of binding a ligand on the reorganization of peptide structure (You, Scarsdale, and Harris 1991; Sobel, Soler, et al 1992; Soler, Sobel and Harris 1992; Tyler-Cross, Sobel et al 1993; Tyler-Cross, Sobel, Marques et al, 1994). Thus, incremental amounts of endotoxin were added to a solution of TR3 CONST and the effect of binding endotoxin by the peptide was assessed by CD spectroscopy.
By CD, Tris Arg Helix #3 (constrained) is 18% helix in solution (20°C) but complexation with endotoxin increases the helix character of the peptide to nearly 50% (Figure 3). Note that binding of endotoxin is dose dependent and saturable.

E. coli (strain JM 109) [4] = test: Neutralization of endotoxin presented by intact E. coli, endotoxin chromogenic assay; assay type: biochemical, Escherichia coli; conditions: 3e06 or 3e07 E. coli per mL; increasing peptide concentrations; within 10 min at 37°C (Figure 5)

In the case of “I: Ac-AEARARRAAARAARRAKKP[Dap]E-NH2 / II: Ac-AEARARRAAARAARRA / III: Ac-AEARARRAAARAARRA (amide I:18-II:C, I:20-III:C) [Tris Arg Helix #3 (constrained)]”, the “% neutralization” value (E. coli (strain JM 109) [1]; E. coli 3e03 organisms/mL) was 100%, the “Endotoxin Equivalents” value (E. coli (strain JM 109) [1]; E. coli 3e03 organisms/mL) was 0.00 ng/mL and the “% neutralization” value (E. coli (strain JM 109) [1]; E. coli 3e04 organisms/mL) was 100%. The “Endotoxin Equivalents” value (E. coli (strain JM 109) [1]; E. coli 3e04 organisms/mL) was 0.00 ng/mL, the “% neutralization” value (E. coli (strain JM 109) [1]; E. coli 3e05 organisms/mL) was 100% and the “Endotoxin Equivalents” value (E. coli (strain JM 109) [1]; E. coli 3e05 organisms/mL) was 0.00 ng/mL. The “% neutralization” value (E. coli (strain JM 109) [1]; E. coli 3e06 organisms/mL) was 87.9%, the “Endotoxin Equivalents” value (E. coli (strain JM 109) [1]; E. coli 3e06 organisms/mL) was 6.97 ng/mL and the “% neutralization” value (E. coli (strain JM 109) [1]; E. coli 3e07 organisms/mL) was 48.8%. The “Endotoxin Equivalents” value (E. coli (strain JM 109) [1]; E. coli 3e07 organisms/mL) was 94.3 ng/mL, the “Endotoxin Equivalents” value (E. coli (strain JM 109) [1]; E. coli 3e08 organisms/mL) was 440.0 ng/mL and the “neutralization of the endotoxin activity” value (E. coli (strain JM 109) [1]; E. coli up to 3e06 organisms/mL) was “complete neutralization”. For the same substance, the endotoxin quantitatively bound ([2]; 1 mg/ml peptide, water or plasma solution) was over 1 µg/mL, the “Percent Binding of” value ([2]; Endotoxin 5, peptide 2.5 (ng/mL and mg/mL)) was 100% and the “Percent Binding of” value ([2]; Endotoxin 50, peptide 2.5 (ng/mL and mg/mL)) was 100%. For the same substance, the “Percent Binding of” value ([2]; Endotoxin 500, peptide 1.0 (ng/mL and mg/mL)) was about 100%, the “neutralization of endotoxin added to aqueous samples” value ([2]; aqueous samples, compared with plasma) was “same results were obtained” and the pKd [3] was 6.06. For the same substance, the “N, stoichiometry of binding (endotoxin:peptide)” value [3] was 0.91 and the “neutralization of endotoxin as presented on the surface of E. coli” value (E. coli (strain JM 109) [4]) was “dose dependent neutralization”.

From patent EP1232754A2, “Use of cationic helix peptides for treatment of sepsis and for detection and removal of endotoxins” (Commonwealth Biotechnologies, Inc., priority 2001, dated 2002)
